Drawing on ChEMBL document CHEMBL1123573, “Design and synthesis of peptide derivatives of a 3-deoxy-D-manno-2-octulosonic acid (KDO) analogue as novel antibacterial agents acting upon lipopolysaccharide biosynthesis” (1987), this text covers MIC for five compounds.

Converted amounts (≈) assume the structure as drawn.

One assay concerns Escherichia coli. Nature of the assay: In vitro testing for minimum inhibitory concentration against Escherichia coli ATCC 11303. The format is functional.
In assay [1] the test system is Salmonella typhimurium. The assay is described as follows: In vitro testing for minimum inhibitory concentration against Salmonella Typhimurium LT2 168. The assay is classed as functional, Salmonella enterica subsp. enterica serovar Typhimurium.
Assay [2] concerns Salmonella typhimurium. Nature of the assay: In vitro testing for minimum inhibitory concentration against Salmonella Typhimurium SL 1102. The format is functional, Salmonella enterica subsp. enterica serovar Typhimurium.
[3] abbreviates: Salmonella enterica subsp. enterica serovar Typhimurium.

As for `CC1(C)S[C@@H]2[C@H](NC(=O)[C@H](N)c3ccccc3)C(=O)N2[C@H]1C(=O)O` [AMPICILLIN], the MIC in the assay on Escherichia coli was 1 µM (≈ 0.349 µg/mL); with Salmonella typhimurium [1] (Salmonella enterica), 0.3 µM (≈ 0.105 µg/mL); against Salmonella typhimurium [2] (Salmonella enterica), 2 µM (≈ 0.699 µg/mL).
Turning to GENTAMICIN, the minimal inhibitory concentration (MIC) with Escherichia coli, in the assay on Salmonella typhimurium [1] (setting [3]) and in the assay on Salmonella typhimurium [2] (setting [3]) was under 0.05 µM in each case.
`CC(N)C(=O)NCC(O)C1OC(C(=O)O)CC(O)C1O` (stereo not given): the minimum inhibitory concentration (MIC) against Escherichia coli, against Salmonella typhimurium [1] (Salmonella enterica) and in the assay on Salmonella typhimurium [2] (Salmonella enterica) was over 2000 µM throughout.
Consider `CSCCC(N)C(=O)NCC(O)C1OC(C(=O)O)CC(O)C1O` (stereo not given), for which the MIC in the assay with Escherichia coli, against Salmonella typhimurium [1] (Salmonella enterica) and with Salmonella typhimurium [2] (Salmonella enterica) was over 2000 µM in each case.
In the case of `C[C@H](N)C(=O)N[C@@H](C)C(=O)NC[C@H](O)[C@H]1O[C@H](C(=O)O)C[C@@H](O)[C@H]1O`, the MIC amounted to 4 µM (≈ 1.45 µg/mL) in the assay on Escherichia coli, 60 µM (≈ 21.8 µg/mL) in the assay with Salmonella typhimurium [1] (Salmonella enterica) and 4 µM (≈ 1.45 µg/mL) in the assay on Salmonella typhimurium [2] (Salmonella enterica).

The MIC is the least concentration at which growth counts as inhibited. High values mean weaker potency, low ones greater potency.
